According to patent US11998642B2 (priority 2011, dated 2024):
Where two headings read alike, the source gives them in different places.

How the values were obtained:
WT αHL pore = WT αHL pore (Staphylococcus aureus, UniProt P09616); format: biochemical, staphylococcal; details: pH 8
αHL = αHL (Staphylococcus aureus, UniProt P09616); details: pH 7; cited from earlier work
[1] = cited from earlier work
cell membrane = details: Xu & McLeod 2001; cited from earlier work
[2] = cited from earlier work; remark: listed apart in the source

Sequence of WT αHL pore (P09616 27-319 limits assumed): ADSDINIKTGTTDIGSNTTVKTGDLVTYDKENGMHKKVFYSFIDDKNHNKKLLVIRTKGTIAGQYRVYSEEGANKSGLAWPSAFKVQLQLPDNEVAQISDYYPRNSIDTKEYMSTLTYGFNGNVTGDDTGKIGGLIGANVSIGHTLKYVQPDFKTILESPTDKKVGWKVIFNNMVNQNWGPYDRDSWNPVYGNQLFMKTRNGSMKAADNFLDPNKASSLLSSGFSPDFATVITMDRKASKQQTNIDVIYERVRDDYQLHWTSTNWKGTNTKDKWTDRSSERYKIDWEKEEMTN
Sequence of αHL (P09616 27-319 limits assumed): as above

OC[C@H]1O[C@@H]2O[C@H]3[C@H](O)[C@@H](O)[C@@H](O[C@H]4[C@H](O)[C@@H](O)[C@@H](O[C@H]5[C@H](O)[C@@H](O)[C@@H](O[C@H]6[C@H](O)[C@@H](O)[C@@H](O[C@H]7[C@H](O)[C@@H](O)[C@@H](O[C@H]8[C@H](O)[C@@H](O)[C@@H](O[C@H]9[C@H](O)[C@@H](O)[C@@H](O[C@H]1[C@H](O)[C@H]2O)O[C@@H]9CO)O[C@@H]8CO)O[C@@H]7CO)O[C@@H]6CO)O[C@@H]5CO)O[C@@H]4CO)O[C@@H]3CO [γCD, γ-cyclodextrin]
current blockade (blocking) amplitude, mean±s.d. (WT αHL pore): 63.7±2.0% | dissociation rate, mean±s.d. (WT αHL pore): 4.0 ± 0.6 s⁻¹ | blocking amplitude (αHL): ~60% | dissociation rate (αHL): 2.0 s⁻¹

CC/C(=C(\c1ccc(O)cc1)c1ccc(OCCN(C)C)cc1)c1ccc(C(C)C)cc1 [Miproxifene, miproxifene]
water solubility less than miproxifene phosphate ([1]; relative to miproxifene phosphate): 1,000 times

miproxifene phosphate
aqueous solubility greater than miproxifene ([1]; relative to miproxifene, Rautio et al. 2008): 1,000 fold

COc1cccc2c1C(=O)c1c(O)c3c(c(O)c1C2=O)C[C@@](O)(C(=O)CO)C[C@@H]3O[C@H]1C[C@H](N)[C@H](O)[C@H](C)O1 [doxorubicin]
permeability to the cell membrane (cell membrane): able to access the cytosol and is

fluo-4
koff for Ca^2+ dissociation [2]: ~400 s⁻¹

O=C(O)CN(CCN(CC(=O)O)CC(=O)O)CC(=O)O [EDTA]
koff for Ca^2+ dissociation ([2]; Naraghi 1997, Johnson et al. 1999): < 1 s⁻¹
